From patent publication US20230201360A1, “Composition and Kit for colonization in gut of external probiotics through bioorthogonal click chemistry” (RESEARCH & BUSINESS FOUNDATION SUNGKYUNKWAN UNIVERSITY, priority 2021, published 2023)

Assays:
[1] = tested on: HT29-MTX-e12 cells; experiment: Binding of DBCO-Bac. to azide-introduced goblet cell-like cells (fluorescence images, flow cytometry); type: cell-based; settings: for binding ability to DBCO-Bac. increase compared to the control group: cells treated with 100 μM precursor; for green fluorescence (distribution of DBCO-Bac. in the culture dish) compared to the control group: low-magnification fluorescence imaging
Description: (§1) In order to evaluate the introduction of an azide group (—N3) (i.e., a functional group for bioorthogonal click chemistry) to the intestinal mucosa, HT29-MTX-e12 cells, which are goblet cell-like cells in vitro, were used. An azide group was introduced to the cell surface through glycan manipulation using tetraacetylated N-azidoacetyl-D-mannosamine (ManNAz) and tetraacetylated N-azidoacetyl-D-galactosamine (GalNAz), which are derivatives of mannosamine and galactosamine, which is a molecule used for mucosal formation. Specifically, HT29-MTX-e12 cells were cultured for 24 hours in DMEM medium containing 100 μM ManNAz or GalNAz. The azide group introduced was subjected to fluorescent labeling by culturing for 30 minutes in a medium containing 10 μM DBCO-Cy5.5, washed twice with physiological saline at 4° C., reacted with 20 μM Hoechst 33342 for 15 minutes, and then the cell nuclei were stained and observed.
When DBCO-Bac. is treated on goblet cell-like cells into which an azide group has been introduced in Experimental Example 3, red fluorescence representing an azide group and green fluorescence representing DBCO-Bac. appear clearly as shown in FIG. 5A.

[2] = tested on: HT29-MTX-e12 cells; experiment: Western blot analysis of azide group introduced into goblet cell-like cells; type: cell-based; settings: various concentrations, 24 hours
Experimental: For quantitative evaluation of an azide group according to the precursor treatment concentration, HT29-MTX-e12 cells in 10 mL medium without sugar or containing various concentrations of GalNAz or ManNAz were inoculated onto 60 mm×15 mm polystyrene tissue culture plates at a density of 2×10^6 cells per plate, and cultured for 24 hours. The cells were obtained after washing with PBS (pH 7.4), lysed in a cell lysis solution (50 mM Tris, pH 7.2, 150 mM NaCl, 1% Triton X-100, 200 ng/mL phenylmethylsulfonyl fluoride) containing phosphatase inhibitor cocktail (St. Louis, Mo., USA), and 10 μL of phosphine-PEG-biotin (Waltham, Mass., Thermofisher Scientific) per 100 μL of the lysate was reacted at room temperature for 12 hours. Then, after subjecting the resultant to electrophoresis on 10% SDS polyacrylamide gel to be transferred to Immobilon P membrane (Millipore Corporation, Billerica, Mass., USA), treated with 1,000:1 diluted HRP-streptavidin (Waltham, Mass., Thermofisher Scientific) at room temperature for 2 hours, and confirmed by developing on Pierce™ECL Western blotting substrate (Waltham, Mass., Thermofisher Scientific).

[3] = tested on: mouse intestinal mucosa; experiment: Bac. remaining in mouse intestinal mucosa after simultaneous treatment with two DBCO-modified bacterial groups; type: in vivo, mice; settings: oral precursor, simultaneous treatment with both DBCO-modified bacteria
Experimental: In addition, in order to evaluate the intestinal mucosal binding ability of DBCO-Bac., GalNAz or ManNAz per animal was orally administered to 5 mg mice, and 24 hours thereafter, DBCO-Bac. was administered at a concentration of 10^9/mL.
In order to confirm whether bioorthogonal click chemistry of DBCO and an azide group is applicable when several groups of bacteria were administered at once as in probiotics, GalNAz and ManNAz were each orally administered to mice by the method of Example 5, and simultaneously treated with Bifidobacterium longum modified with DBCO and Lactobacillus acidophilus modified with DBCO, and the fluorescence value of Bac. remaining in the intestinal mucosa was confirmed.

[4] = tested on: HT29-MTX-e12 cells; experiment: Azide group expression in goblet cell-like cells, DBCO-Cy5.5 fluorescence imaging; type: cell-based; settings: 100 μM, 24 hours; DBCO-Cy5.5 labeling
Description: as §1
In the case of introduction of an azide group into the intestinal mucosa, after introduction of an azide group into the HT29-MTX-e12 goblet cell-like cell line by the method of Example 2, the binding ability with DBCO-Cy5.5 was evaluated.

[5] = tested on: mouse intestinal mucosa; experiment: Azide group expression in mouse intestinal mucosa after oral administration (DBCO-Cy5.5 staining); type: in vivo, mice; settings: 5 mg per animal, duodenum, jejunum, ileum, colon
Experimental: To confirm the expression level and expression time of an azide group in the intestinal mucosa, GalNAz or ManNAz was orally administered to mice, and the expression level of an azide group in the intestinal mucosa was evaluated through the binding ability with DBCO-Cy5.5. 5 mg of GalNAz or ManNAz was orally administered per animal, the intestinal tissue was divided into 4 parts (duodenum, jejunum, ileum, and colon) of the small intestine and extracted after 12 hours, 24 hours, 36 hours, and 48 hours at intervals of 12 hours, and dipped in 20 μM of each DBCO-Cy5.5 solution and stained.
In the case of introducing an azide group into the mouse intestinal mucosa, after oral administration of GalNAz or ManNAz to mice by the method of Example 5 above, the expression level of an azide group in the intestinal mucosa was evaluated through the binding ability with DBCO-Cy5.5.

[6] = tested on: HT29-MTX-e12 cells; experiment: Binding of DBCO-Bac. in 3-dimensional intestinal mucosal simulation model; type: cell-based; settings: 100 μM precursor; 3D fluorescence image
Experimental: To evaluate the binding ability of DBCO-Bac. to the mucosa in a three-dimensional environment, mucosal formation of HT29-MTX-e12 cells was promoted through N-[N-(3,5-difluorophenacetyl)-L-alanyl]-S-phenylglycine t-butyl ester (DAPT) stimulation, and a 3D intestinal mucosal simulation model was prepared using the same. HT29-MTX-e12 cells were inoculated in DMEM medium and cultured for 24 hours, treated with 20 μM DAPT 4 times at intervals of once every 2 days, and from the second DAPT treatment, treated with the culture medium containing 100 μM GalNAz or ManNAz three times at intervals of once every two days. Then, the resultant was treated with DBCO-Bac. at a concentration of 5×10^8/mL.
Additionally, in order to evaluate the binding ability of DBCO-Bac. to the intestinal mucosa in a three-dimensional environment, a three-dimensional intestinal mucosal simulation model was prepared using HT29-MTX-e12 cells in which mucosal formation was promoted through DAPT stimulation by the method of Example 4 above.

Compound	binding ability to DBCO-Bac. increase compared to the control group [1]	green fluorescence (distribution of DBCO-Bac. in the culture dish) compared to the control group [1]	generation of an azide group [2]	amounts of DBCO-modified Bifidobacterium longum and Lactobacillus acidophilus remaining in the intestinal mucosa compared to the control group [3]	red fluorescence (azide group) in HT29-MTX-e12 cells [4]	time after oral administration at which fluorescence intensity (azide expression) was strongest [5]	green fluorescence (binding ability to DBCO-Bac.) compared to the control group [6]
CC(=O)OCC1OC(OC(C)=O)C(NC(=O)CN=[N+]=[N-])[C@@H](OC(C)=O)[C@H]1OC(C)=O (stereo partly drawn) [GalNAz, tetraacetylated N-azidoacetyl-D-galactosamine]	about 400 times	increased	increased depending on the concentration	higher	red fluorescence appeared	about 24 hours	increased significantly
tetraacetylated N-azidoacetyl-D-mannosamine [ManNAz]	about 500 times	increased	increased depending on the concentration	significantly higher	red fluorescence appeared	about 24 hours	increased significantly
